Results from US8575163B2, “Pyrrolopyridinylpyrimidin-2-ylamine derivatives” (Merck Patent GmbH, priority 2009, dated 2013).
pIC50: −log10 of the molar value. Like-named read-outs stand apart in the source and are kept apart here.

What was measured:
PDK1 = target: T1, PDK1 (Homo sapiens, UniProt O15530); experiment: Test for the inhibition of PDK1 (flashplate, 33P-ATP); type: biochemical; details: His6-PDK1 3.4 nM, 4 μM ATP, 30° C., 60 min
T1 construct: His6 (N)
T1 sequence (O15530 51-556 limits assumed): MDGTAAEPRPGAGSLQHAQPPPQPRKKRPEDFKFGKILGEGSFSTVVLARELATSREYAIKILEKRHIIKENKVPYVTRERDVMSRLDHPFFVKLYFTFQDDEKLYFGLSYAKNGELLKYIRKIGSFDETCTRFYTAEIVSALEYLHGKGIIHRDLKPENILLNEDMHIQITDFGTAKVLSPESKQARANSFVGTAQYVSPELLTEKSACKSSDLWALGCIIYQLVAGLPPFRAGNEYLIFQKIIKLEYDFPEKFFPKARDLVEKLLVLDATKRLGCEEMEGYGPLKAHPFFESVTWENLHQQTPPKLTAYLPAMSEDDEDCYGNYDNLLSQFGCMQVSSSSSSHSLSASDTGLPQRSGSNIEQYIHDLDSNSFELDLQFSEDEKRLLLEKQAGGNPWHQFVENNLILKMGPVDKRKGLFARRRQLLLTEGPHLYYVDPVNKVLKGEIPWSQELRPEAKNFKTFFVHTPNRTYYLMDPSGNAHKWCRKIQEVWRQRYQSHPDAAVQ
Method in brief: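 His6-PDK1(1-50) (3.4 nM) and a biotinylated peptide substrate (400 nM) were incubated 60 min at 30° C with 4 μM ATP containing ^33P-ATP and test compound. Incorporated radioactivity was counted after subtracting a 100 nM staurosporine blank and expressed as % of control; IC50 derived from these.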

[1] = test system: PDK1 kinase activity (phospho-T308-PKB) in PC3 cells; experiment: Cellular testing of PDK1 kinase inhibitors in PC3 cells (Luminex, phospho-T308-PKB); type: cell-based; details: 30 min incubation, serum-free, read-out: IC50 PC3 cells [P-PKB T308]
Protocol: Method for the Cellular Testing of PDK1 Kinase Inhibitors in PC3 Cells.
The cellular assay for the determination of the PDK1 kinase activity is carried out as a Luminex assay in the 96-well format. PC3 cells are shown at 20,000 cells per well in 100 μl of medium (45% of […]/45% of Ham's F12/10% of FCS) and incubated on the following day for 30 min with a serial dilution of the test substance (7 concentrations) under serum-free conditions. The cells are subsequently lysed using 90 μl of lysis buffer (20 mM tris/HCl pH 8.0, 150 mM NaCl, 1% of NP40, 10% of glycerol, 1% of phosphatase inhibitor I, 1% of phosphatase inhibitor II, 0.1% of protease inhibitor cocktail III, 0.01% of benzonase) per well, and the lysates are separated off from insoluble cell constituents by means of centrifugation through a 96-well filter plate (0.65 μm). The lysates are incubated overnight at 4° C. with shaking with Luminex beads to which an anti-total PKB antibody is coupled. The detection is carried out on the following day by addition of a phospho-T308-PKB antibody and a species-specific peroxidase-labelled secondary antibody. The detection of phospho-T308-PKB is carried out by measurement in a Luminex100 instrument by determination of 100 events per cavity in a measurement time of 60 sec. As pharmacological blank, the signals obtained from cells which have been treated with 10 μM staurosporin are subtracted from all other batches. The control value used for maximum phosphorylation of PKB on T308 are the signals from cells which have only been treated with the solvent (0.3% of DMSO). The values of the batches treated with test substance are calculated therefrom as percentage of control, and IC50 values are determined by means of RS1.

| pIC50 (PDK1) | pIC50 ([1]; Homo sapiens, PC-3, 0.5 h) | pIC50 [1] | SMILES |
| --- | --- | --- | --- |
| 7.41 | 5.05 |  | Cn1cc(-c2cnc3[nH]cc(-c4cc([C@](C)(O)c5cccc(Cl)c5F)nc(N)n4)c3c2)cn1 (single isomer, unassigned) [A138] |
| 6.68 | 6.06 |  | CC[C@@](O)(c1ccccc1)c1cc(-c2c[nH]c3ncc(-c4cnn(CC(=O)N5CCCCC5)c4)cc23)nc(N)n1 (single isomer, unassigned) [A136] |
| 7.32 | 7.74 |  | CC[C@@](O)(c1ccc(F)cc1)c1cc(-c2c[nH]c3ncc(-c4cnn(C)c4)cc23)nc(N)n1 (single isomer, unassigned) [A121] |
| 8.40 | 6.28 |  | CCC(O)(c1ccncc1)c1cc(-c2c[nH]c3ncc(-c4cnn(CC(=O)N5CCCCC5)c4)cc23)nc(N)n1 (stereo not drawn) [A50, 2-(4-{3-[2-amino-6-(1-hydroxy-1-pyridin-4-ylpropyl)pyrimidin-4-yl]-1H-pyrrolo[2,3-b]pyridin-5-yl}pyrazol-1-yl)-1-piperidin-1-ylethanone] |
| 7.80 |  | 7.39 | Cn1cc(-c2cnc3[nH]cc(-c4cc(C(C)(O)c5ccccc5F)nc(N)n4)c3c2)cn1 (single isomer, unassigned) [A104, 1-{2-amino-6-[5-(1-methyl-1H-pyrazol-4-yl)-1H-pyrrolo[2,3-b]pyridin-3-yl]-pyrimidin-4-yl}-1-(2-fluorophenyl)ethanol] |
| 8.27 | 5.09 |  | CCC(O)(c1cc[n+]([O-])cc1)c1cc(-c2c[nH]c3ncc(-c4cnn(C)c4)cc23)nc(N)n1 (stereo not drawn) [A110, 1-{2-amino-6-[5-(1-methyl-1H-pyrazol-4-yl)-1H-pyrrolo[2,3-b]pyridin-3-yl]-pyrimidin-4-yl}-1-(1-oxypyridin-4-yl)propan-1-ol] |
| 7.49 | 7.16 |  | COCOC(C)(c1cc(-c2c[nH]c3ncc(-c4cnn(C)c4)cc23)nc(N)n1)c1ccccc1C (stereo not drawn) [A18, 4-(1-methoxymethoxy-1-o-tolylethyl)-6-[5-(1-methyl-1H-pyrazol-4-yl)-1H-pyrrolo[2,3-b]pyridin-3-yl]pyrimidin-2-ylamine] |
| 7.54 | 6.62 |  | CCCC(O)(c1cc(-c2c[nH]c3ncc(-c4cnn(C)c4)cc23)nc(N)n1)c1ccccc1F (stereo not drawn) [A118, 1-{2-amino-6-[5-(1-methyl-1H-pyrazol-4-yl)-1H-pyrrolo[2,3-b]pyridin-3-yl]-pyrimidin-4-yl}-1-(2-fluorophenyl)butan-1-ol] |
| 7.59 |  |  | Cn1cc(-c2cnc3[nH]cc(-c4cc(C(C)(O)c5ccc(=O)[nH]c5)nc(N)n4)c3c2)cn1 (stereo not drawn) [A111, 5-(1-{2-amino-6-[5-(1-methyl-1H-pyrazol-4-yl)-1H-pyrrolo[2,3-b]pyridin-3-yl]-pyrimidin-4-yl}-1-hydroxyethyl)-1H-pyridin-2-one] |
| 7.12 |  |  | CC(O)(c1cccc(F)c1)c1cc(-c2c[nH]c3ncc(-c4ccc(CC#N)cc4)cc23)nc(N)n1 (stereo not drawn) [A55, [4-(3-{2-amino-6-[1-(3-fluorophenyl)-1-hydroxyethyl]pyrimidin-4-yl}-1H-pyrrolo[2,3-b]pyridin-5-yl)phenyl]acetonitrile] |
| 7.32 |  |  | COC(=O)CCn1cc(-c2cnc3[nH]cc(-c4cc(C(C)(O)c5ccccc5)nc(N)n4)c3c2)cn1 (stereo not drawn) [A70, methyl 3-(4-{3-[2-amino-6-(1-hydroxy-1-phenylethyl)pyrimidin-4-yl]-1H-pyrrolo[2,3-b]pyridin-5-yl}pyrazol-1-yl)propionate] |
| 7.72 |  |  | Cc1ccccc1C(C)(O)c1cc(-c2c[nH]c3ncc(-c4cnn(CCO)c4)cc23)nc(N)n1 (stereo not drawn) [A89, 1-(2-amino-6-{5-[1-(2-hydroxyethyl)-1H-pyrazol-4-yl]-1H-pyrrolo[2,3-b]-pyridin-3-yl}pyrimidin-4-yl)-1-o-tolylethanol] |
| 6.19 |  |  | CC[C@@](OCOC)(c1cccc(F)c1)c1cc(-c2c[nH]c3ncc(Br)cc23)nc(N)n1 [A51, 4-(5-bromo-1H-pyrrolo[2,3-b]pyridin-3-yl)-6-[(R)-1-(3-fluorophenyl)-1-methoxymethoxypropyl]pyrimidin-2-ylamine] |
| 7.40 |  |  | COCOC(C)(c1cc(-c2c[nH]c3ncc(-c4cnn(C)c4)cc23)nc(N)n1)c1cccc(Cl)c1F (stereo not drawn) [A29, 4-[1-(3-chloro-2-fluorophenyl)-1-methoxymethoxyethyl]-6-[5-(1-methyl-1H-pyrazol-4-yl)-1H-pyrrolo[2,3-b]pyridin-3-yl]pyrimidin-2-ylamine] |
| 7.37 |  |  | CCC(O)(c1cccnc1)c1cc(-c2c[nH]c3ncc(-c4cnn(C)c4)cc23)nc(N)n1 (stereo not drawn) [A26, 1-{2-amino-6-[5-(1-methyl-1H-pyrazol-4-yl)-1H-pyrrolo[2,3-b]pyridin-3-yl]-pyrimidin-4-yl}-1-pyridin-3-ylpropan-1-ol] |
| 7.77 |  |  | CC(O)(c1ccccc1)c1cc(-c2c[nH]c3ncc(-c4cnn(C(CF)CF)c4)cc23)nc(N)n1 (stereo not drawn) [A80, 1-(2-amino-6-{5-[1-(2-fluoro-1-fluoromethylethyl)-1H-pyrazol-4-yl]-1H-pyrrolo[2,3-b]pyridin-3-yl}pyrimidin-4-yl)-1-phenylethanol] |
| 6.13 |  |  | CC(O)(c1ccccc1)c1cc(-c2c[nH]c3ncc(-c4ccnnc4)cc23)nc(N)n1 (stereo not drawn) [A101, 1-[2-amino-6-(5-pyridazin-4-yl-1H-pyrrolo[2,3-b]pyridin-3-yl)pyrimidin-4-yl]-1-phenylethanol] |
| 7.41 |  |  | CC(C(=O)N1CCCC1)n1cc(-c2cnc3[nH]cc(-c4cc(C(C)(O)c5ccccc5)nc(N)n4)c3c2)cn1 (stereo not drawn) [A14, 2-(4-{3-[2-amino-6-(1-hydroxy-1-phenylethyl)pyrimidin-4-yl]-1H-pyrrolo-[2,3-b]pyridin-5-yl}pyrazol-1-yl)-1-pyrrolidin-1-ylpropan-1-one] |
| 7.30 |  |  | CNc1nc(-c2c[nH]c3ncc(-c4cnn(CCO)c4)cc23)cc(C(C)(O)c2ccccc2)n1 (single isomer, unassigned) [A91, 1-(6-{5-[1-(2-hydroxyethyl)-1H-pyrazol-4-yl]-1H-pyrrolo[2,3-b]pyridin-3-yl}-2-methylaminopyrimidin-4-yl)-1-phenylethanol] |
| 7.25 |  |  | CCCC(OCOC)(c1ccncc1)c1cc(-c2c[nH]c3ncc(-c4cnn(C)c4)cc23)nc(N)n1 (stereo not drawn) [A36, 4-(1-methoxymethoxy-1-pyridin-4-ylbutyl)-6-[5-(1-methyl-1H-pyrazol-4-yl)-1H-pyrrolo[2,3-b]pyridin-3-yl]pyrimidin-2-ylamine] |
| 6.55 |  |  | CCCC(O)(c1ccccc1)c1cc(-c2c[nH]c3ncc(Br)cc23)nc(N)n1 (stereo not drawn) [A16, 1-[2-amino-6-(5-bromo-1H-pyrrolo[2,3-b]pyridin-3-yl)pyrimidin-4-yl]-1-phenylbutan-1-ol] |
| 6.02 |  |  | COCO[C@@](C)(c1cccc(F)c1)c1cc(-c2c[nH]c3ncc(Br)cc23)nc(N)n1 [A72, 4-(5-bromo-1H-pyrrolo[2,3-b]pyridin-3-yl)-6-[(S)-1-(3-fluorophenyl)-1-methoxymethoxyethyl]pyrimidin-2-ylamine] |
| 7.60 |  |  | CCC(OCOC)(c1cc(-c2c[nH]c3ncc(-c4cnn(C)c4)cc23)nc(N)n1)c1ccncc1F (stereo not drawn) [A32, 4-[1-(3-fluoropyridin-4-yl)-1-methoxymethoxypropyl]-6-[5-(1-methyl-1H-pyrazol-4-yl)-1H-pyrrolo[2,3-b]pyridin-3-yl]pyrimidin-2-ylamine] |
| 7.17 |  |  | C=C(CF)n1cc(-c2cnc3[nH]cc(-c4cc(C(C)(O)c5ccccc5)nc(N)n4)c3c2)cn1 (stereo not drawn) [A79, 1-(2-amino-6-{5-[1-(1-fluoromethylvinyl)-1H-pyrazol-4-yl]-1H-pyrrolo[2,3-b]-pyridin-3-yl}pyrimidin-4-yl)-1-phenylethanol] |
| 7.10 |  |  | CNC(=O)CCn1cc(-c2cnc3[nH]cc(-c4cc(C(C)(OCOC)c5ccccc5)nc(N)n4)c3c2)cn1 (stereo not drawn) [A75, 3-(4-{3-[2-amino-6-(1-methoxymethoxy-1-phenylethyl)pyrimidin-4-yl]-1H-pyrrolo[2,3-b]pyridin-5-yl}pyrazol-1-yl)-N-methylpropionamide] |
